Results from patent publication US9999220B2, “Method for repelling rodents” (Arkion Life Sciences, LLC, priority 2014, dated 2018).

How the values were obtained:
[1] = tested on: black-tailed prairie dogs; test: Concentration-response repellency experiment, treated whole corn, black-tailed prairie dogs; assay type: in vivo, Cynomys ludovicianus; conditions: black-tailed prairie dogs offered corn seeds treated with 0.5-4% anthraquinone (target concentrations), 1-day test
Description: (§1) These values can also be used to form ranges, such as, for example, from about 15% to about 85% repellency, with preferred ranges for particular rodent families ranging from about 20-50%; 25-40%; 40-55%; and 55-85%. The percent repellency is based on the percentage of the treated item which is not consumed by the animal.
(§2) We conducted a concentration-response experiment with an anthraquinone-based repellent (Avipel®, a.i. 50% 9,10-anthraquinone; Arkion Life Sciences, New Castle, Del.) to determine anthraquinone repellency for black-tailed prairie dogs (Cynomys ludovicianus, N=44 males and females; Werner et al. 2011). During a 3-day pre-test, we offered one bowl (untreated whole corn) in individual cages at 08:00 h, daily. […] We randomly assigned repellent treatments among groups. During the 1-day test, we offered one bowl (repellent-treated whole corn) at 08:00 h. Consumption of treated corn seeds was measured (±0.1 g) at 08:00 h on the day subsequent to the test.
We observed 24-37% repellency (FIG. 1) during our concentration-response experiment with black-tailed prairie dogs offered corn seeds treated with 0.5-4% anthraquinone (target concentrations; Werner et al. 2011).

[2] = tested on: Richardson's ground squirrels; test: Concentration-response repellency experiment, treated whole oats, Richardson's ground squirrels; assay type: in vivo, Urocitellus richardsonii; conditions: Richardson's ground squirrels offered oats treated with 0.5-2% anthraquinone (target concentrations), 1-day test
Description: as §1
as §2, with “a.i.50%” for “a.i. 50%”, “Richardson's ground squirrels (Urocitellus richardsonii, N=28” for “black-tailed prairie dogs (Cynomys ludovicianus, N=44”, “females).” for “females; Werner et al. 2011).”, “oats)” for “corn)”, “oats” for “corn seeds”
We observed 40-56% repellency (FIG. 3) during our concentration-response experiment with Richardson's ground squirrels offered oats treated with 0.5-2% anthraquinone (target concentrations).

Sprague-Dawley rats = test: 13-week single-choice feeding study in Sprague-Dawley rats (rat repellency example); assay type: in vivo; conditions: for Body Weight Day 1: Day 1, mean ± SD; for Body Weight Week 3: Week 3, mean ± SD; for Body Weight Week 7: Week 7, mean ± SD; for Body Weight Week 13: Week 13, mean ± SD; for Total Weight Gain % difference from control / Total Weight Gain: over 13 weeks; for Total Weight Gain: mean ± SD
Procedure: Anthraquinone is not a classic toxicant but a feeding study on Sprague-Dawley rats was done to determine effects of long term feeding where there was a single choice offered to rats over a 13 week period.
Anthraquinones was administered to four groups of 10 male and 10 female Sprague-Dawley rats/group at concentrations of 0, 500, 2000, or 7500 ppm (0, 40, 125, or 495 mg/kg/day in males; 0, 44, 150, or 661 mg/kg/day in females) for 4 consecutive weeks. Beginning with Week 5, the 500 ppm diet was reduced to 200 ppm resulting in lowering the doses to 11 and 16 mg/kg/day for males and females, respectively, through the end of the 13-week experimental period.
Significant reduction in feeding with a single choice indicates a non-lethal repellency.

California voles = test: Concentration-response repellency experiment, treated whole oats, California voles; assay type: in vivo, Microtus californicus; conditions: California voles offered oats treated with 0.5-2% anthraquinone (target concentrations), 1-day test
Description: as §1
as §2, with “California (Microtus californicus, N=30” for “black-tailed prairie dogs (Cynomys ludovicianus, N=44”, “females).” for “females; Werner et al. 2011).”, “oats)” for “corn)”, “oats” for “corn seeds”
We observed 58-84% repellency (FIG. 2) during our concentration-response experiment with California voles offered oats treated with 0.5-2% anthraquinone (target concentrations).

deer mice = test: Concentration-response repellency experiment, treated whole oats, deer mice; assay type: in vivo, Peromyscus maniculatus; conditions: deer mice offered oats treated with 0.25-2% anthraquinone (target concentrations), 1-day test
Procedure: During a 3-day pre-test, we offered one bowl (untreated whole oats) in individual cages at 08:00 h, daily. […] We randomly assigned repellent treatments among groups. During the 1-day test, we offered one bowl (repellent-treated whole oats) at 08:00 h. Consumption of treated oats was measured (±0.1 g) at 08:00 h on the day subsequent to the test.

[3] = females, 500 ppm diet (200 ppm from Week 5)
[4] = males, 500 ppm diet (200 ppm from Week 5)

## O=C1c2ccccc2C(=O)c2ccccc21 [anthraquinone, 9,10-anthraquinone]
[1]
  repellency: 24-37%
[2]
  repellency: 40-56%
Sprague-Dawley rats; 500 ppm in diet, single choice, 13 weeks
  repellency observed (lack of weight gain from inhibited feeding): some repellency was observed
Sprague-Dawley rats; [3]
  Body Weight Day 1: 185 ± 12.2 G
  Body Weight Week 3: 223 ± 12.4 G
  Body Weight Week 7: 254 ± 14.2 G
  Body Weight Week 13: 274 ± 15.0 G
  Total Weight Gain % difference from control: −27%
  Total Weight Gain: 89 ± 10.1 Grams
Sprague-Dawley rats; females, 2000 ppm diet
  Body Weight Day 1: 188 ± 14.6 G
  Body Weight Week 3: 212 ± 14.2 G
  Body Weight Week 7: 238 ± 11.7 G
  Body Weight Week 13: 247 ± 16.3 G
  Total Weight Gain % difference from control: −51%
  Total Weight Gain: 59 ± 9.2 Grams
Sprague-Dawley rats; females, 7500 ppm diet
  Body Weight Day 1: 189 ± 11.8 G
  Body Weight Week 3: 204 ± 22.0 G
  Body Weight Week 7: 226 ± 26.3 G
  Body Weight Week 13: 217 ± 27.7 G
  Total Weight Gain % difference from control: −76%
  Total Weight Gain: 29 ± 28.2 Grams
Sprague-Dawley rats; [4]
  Body Weight Day 1: 252 ± 14.5 G
  Body Weight Week 3: 379 ± 26.4 G
  Body Weight Week 7: 471 ± 39.4 G
  Body Weight Week 13: 528 ± 47.4 G
  Total Weight Gain % difference from control: −11%
  Total Weight Gain: 275 ± 38.7 Grams
Sprague-Dawley rats; males, 2000 ppm diet
  Body Weight Day 1: 250 ± 13.5 G
  Body Weight Week 3: 359 ± 23.7 G
  Body Weight Week 7: 443 ± 36.9 G
  Body Weight Week 13: 498 ± 43.0 G
  Total Weight Gain % difference from control: −20%
  Total Weight Gain: 247 ± 37.1 Grams
Sprague-Dawley rats; males, 7500 ppm diet
  Body Weight Day 1: 250 ± 10.1 G
  Body Weight Week 3: 342 ± 20.2 G
  Body Weight Week 7: 425 ± 28.7 G
  Body Weight Week 13: 470 ± 37.9 G
  Total Weight Gain % difference from control: −28%
  Total Weight Gain: 221 ± 34.0 Grams
Sprague-Dawley rats; single choice diet, 13 weeks
  dietary concentration at which effective repellency began: approximately 2000 ppm
California voles
  repellency: 58-84%
Deer mice
  repellency: 19-52%
